Key:
Type in all cases: in vivo
[1] = tested on: redroot pigweed (Amaranthus retroflexus, AMARE); experiment: Pre-emerge test, greenhouse herbicide activity screening
In short: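 Plants grown in 10 cm pots of sandy loam mix received acetone-dissolved compounds through a moving flat-fan nozzle. Doses ranged from 15 to 1000 g ai/ha. Pre-emerge pots were seeded one day earlier, post-emerge pots 8–21 days earlier. Fourteen days on, each pot was graded 0–100 for damage.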

[2] = tested on: barnyardgrass (Echinochloa crus-galli, ECHCG); experiment: as above
In short: (§1)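 Compounds in acetone were track-sprayed at 15–1000 g ai/ha: pre-emergence onto soil sown the previous day, then top-watered to incorporate and later bottom-watered; post-emergence onto 2–3 leaf plants with 0.25% v/v surfactant, bottom-watered only. Ratings on a 0–100 phytotoxicity scale were taken at day 14.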

[3] = tested on: green foxtail (Setaria viridis, SETVI); experiment: as above
In short: as §1

[4] = tested on: ivyleaf morningglory (Ipomoea hederacea, IPOHE); experiment: as above
In short: as §1

[5] = tested on: johnsongrass (Sorghum halepense, SORHA); experiment: as above
In short: as §1

[6] = tested on: lambsquarters (Chenopodium album, CHEAL); experiment: as above
In short: as §1

[7] = tested on: large crabgrass (Digitaria sanguinalis, DIGSA); experiment: as above
In short: as §1

[8] = tested on: sicklepod (Cassia obtusifolia, CASOB); experiment: as above
In short: as §1

[9] = tested on: velvetleaf (Abutilon theophrasti, ABUTH); experiment: as above
In short: as §1

[10] = tested on: field corn (Zea mays L., var. Dekalb 535, CORN); experiment: Pre-emerge test, crop safety
In short: (§2)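 Applied at 15–1000 g ai/ha from acetone in 187 l/ha spray volume. Post-emergence applications included 0.25% v/v non-ionic surfactant and reached plants sown 8–21 days before. Pre-emergence applications were incorporated by surface watering. Efficacy or crop damage was rated on a 0–100 scale after 14 days.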

[11] = tested on: upland rice (Oryza sp., var. Tebonnet, RICE); experiment: Pre-emerge test, crop safety
In short: as §2

[12] = tested on: barnyardgrass (Echinochloa crus-galli, ECHCG); experiment: Post-emerge test, greenhouse herbicide activity screening; details: post-emerge; for Post-emerge Herbicidal Activity ECHCG: phytotoxicity rating 0-100 at 14 days after application; for phytotoxicity rating ECHCG: 14 days after application, rating scale 0-100
In short: (§3)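 Each test used a mechanized track sprayer delivering 187 l/ha of acetone solution at 15–1000 g ai/ha. Post-emerge foliage at 2–3 leaves was treated with added 0.25% v/v non-ionic surfactant and bottom-watered only. Injury was assessed on day 14, where 100 means total kill.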

[13] = tested on: green foxtail (Setaria viridis, SETVI); experiment: as above; details: post-emerge; for Post-emerge Herbicidal Activity SETVI: phytotoxicity rating 0-100 at 14 days after application; for phytotoxicity rating SETVI: 14 days after application, rating scale 0-100
In short: as §3

[14] = tested on: ivyleaf morningglory (Ipomoea hederacea, IPOHE); experiment: as above; details: post-emerge; for Post-emerge Herbicidal Activity IPOHE: phytotoxicity rating 0-100 at 14 days after application; for phytotoxicity rating IPOHE: 14 days after application, rating scale 0-100
In short: as §3

[15] = tested on: johnsongrass (Sorghum halepense, SORHA); experiment: as above; details: post-emerge; for Post-emerge Herbicidal Activity SORHA: phytotoxicity rating 0-100 at 14 days after application; for phytotoxicity rating SORHA: 14 days after application, rating scale 0-100
In short: as §3

[16] = tested on: lambsquarters (Chenopodium album, CHEAL); experiment: as above; details: post-emerge; for Post-emerge Herbicidal Activity CHEAL: phytotoxicity rating 0-100 at 14 days after application; for phytotoxicity rating CHEAL: 14 days after application, rating scale 0-100
In short: as §3

[17] = tested on: large crabgrass (Digitaria sanguinalis, DIGSA); experiment: as above; details: post-emerge; for Post-emerge Herbicidal Activity DIGSA: phytotoxicity rating 0-100 at 14 days after application; for phytotoxicity rating DIGSA: 14 days after application, rating scale 0-100
In short: as §3

[18] = tested on: redroot pigweed (Amaranthus retroflexus, AMARE); experiment: as above; details: post-emerge; for Post-emerge Herbicidal Activity AMARE: phytotoxicity rating 0-100 at 14 days after application; for phytotoxicity rating AMARE: 14 days after application
In short: as §3

[19] = tested on: sicklepod (Cassia obtusifolia, CASOB); experiment: as above; details: post-emerge; for Post-emerge Herbicidal Activity CASOB: phytotoxicity rating 0-100 at 14 days after application; for phytotoxicity rating CASOB: 14 days after application, rating scale 0-100
In short: as §3

[20] = tested on: velvetleaf (Abutilon theophrasti, ABUTH); experiment: as above; details: post-emerge; for Post-emerge Herbicidal Activity ABUTH: phytotoxicity rating 0-100 at 14 days after application; for phytotoxicity rating ABUTH: 14 days after application, rating scale 0-100
In short: as §3

[21] = tested on: field corn (Zea mays L., var. Dekalb 535, CORN); experiment: Post-emerge test, crop safety; details: post-emerge; for Post-emerge Herbicidal Activity CORN: crop damage rating 0-100 at 14 days after application; for phytotoxicity rating CORN (crop damage): 14 days after application, rating scale 0-100
In short: (§4)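 Rating: 0–100 visual injury, 14 DAA. Application: acetone, 187 l/ha, 15–1000 g ai/ha, flat-fan track sprayer with nozzle 40–45 cm above soil or canopy. Post-emerge runs used 0.25% v/v surfactant on 2–3 leaf plants.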

[22] = tested on: upland rice (Oryza sp., var. Tebonnet, RICE); experiment: Post-emerge test, crop safety; details: post-emerge; for Post-emerge Herbicidal Activity RICE: crop damage rating 0-100 at 14 days after application; for phytotoxicity rating RICE (crop damage): 14 days after application, rating scale 0-100
In short: as §4

[23] = pre-emerge, rate 63 g ai/ha, phytotoxicity rating 0-100 at 14 days after application
[24] = pre-emerge, rate 250 g ai/ha, phytotoxicity rating 0-100 at 14 days after application
[25] = crop damage, pre-emerge, rate 63 g ai/ha, phytotoxicity rating 0-100 at 14 days after application
[26] = crop damage, pre-emerge, rate 250 g ai/ha, phytotoxicity rating 0-100 at 14 days after application
[27] = 63 g ai/ha, phytotoxicity rating 0-100, 14 days after application
[28] = 250 g ai/ha, phytotoxicity rating 0-100, 14 days after application
[29] = 63 g ai/ha, crop damage rating 0-100, 14 days after application
[30] = 250 g ai/ha, crop damage rating 0-100, 14 days after application

COc1ccccc1COC(=O)Nc1c(C)c(Cl)cc(F)c1-n1c(=O)cc(C(F)(F)F)n(C)c1=O [4-58]
80: Pre-emerge Herbicidal Activity SETVI [3, 23]
40: Post-emerge Herbicidal Activity ECHCG ([12]; 250 g ai/ha)
20: Pre-emerge Herbicidal Activity SORHA [5, 23] | Post-emerge Herbicidal Activity DIGSA ([17]; 63 g ai/ha)
60: Pre-emerge Herbicidal Activity SORHA [5, 24] | Post-emerge Herbicidal Activity DIGSA ([17]; 250 g ai/ha) | Post-emerge Herbicidal Activity RICE ([22]; 63 g ai/ha)
50: Post-emerge Herbicidal Activity SETVI ([13]; 63 g ai/ha) | Post-emerge Herbicidal Activity SORHA ([15]; 250 g ai/ha)
25: Pre-emerge Herbicidal Activity CORN [10, 26]
0: Pre-emerge Herbicidal Activity CORN [10, 25]
70: Pre-emerge Herbicidal Activity ECHCG [2, 24] | Pre-emerge Herbicidal Activity CASOB [8, 23] | Pre-emerge Herbicidal Activity RICE [11, 26] | Post-emerge Herbicidal Activity CORN ([21]; 250 g ai/ha)
90: Post-emerge Herbicidal Activity SETVI ([13]; 250 g ai/ha) | Post-emerge Herbicidal Activity CASOB ([19]; 63 g ai/ha)
100: Pre-emerge Herbicidal Activity AMARE [1, 23] | Pre-emerge Herbicidal Activity AMARE [1, 24] | Pre-emerge Herbicidal Activity SETVI [3, 24] | Pre-emerge Herbicidal Activity IPOHE [4, 24] | Pre-emerge Herbicidal Activity CHEAL [6, 23] | Pre-emerge Herbicidal Activity CHEAL [6, 24] | Pre-emerge Herbicidal Activity DIGSA [7, 24] | Pre-emerge Herbicidal Activity CASOB [8, 24] | Pre-emerge Herbicidal Activity ABUTH [9, 23] | Pre-emerge Herbicidal Activity ABUTH [9, 24] | Post-emerge Herbicidal Activity IPOHE ([14]; 63 g ai/ha) | Post-emerge Herbicidal Activity IPOHE ([14]; 250 g ai/ha) | Post-emerge Herbicidal Activity CHEAL ([16]; 63 g ai/ha) | Post-emerge Herbicidal Activity CHEAL ([16]; 250 g ai/ha) | Post-emerge Herbicidal Activity AMARE ([18]; 63 g ai/ha) | Post-emerge Herbicidal Activity AMARE ([18]; 250 g ai/ha) | Post-emerge Herbicidal Activity CASOB ([19]; 250 g ai/ha) | Post-emerge Herbicidal Activity ABUTH ([20]; 63 g ai/ha) | Post-emerge Herbicidal Activity ABUTH ([20]; 250 g ai/ha)
75: Post-emerge Herbicidal Activity RICE ([22]; 250 g ai/ha)
30: Pre-emerge Herbicidal Activity ECHCG [2, 23] | Pre-emerge Herbicidal Activity IPOHE [4, 23] | Pre-emerge Herbicidal Activity DIGSA [7, 23] | Pre-emerge Herbicidal Activity RICE [11, 25] | Post-emerge Herbicidal Activity ECHCG ([12]; 63 g ai/ha) | Post-emerge Herbicidal Activity SORHA ([15]; 63 g ai/ha) | Post-emerge Herbicidal Activity CORN ([21]; 63 g ai/ha)

COc1c(Cl)cc(F)c(-n2c(=O)cc(C(F)(F)F)n(C)c2=O)c1NC(=O)OCc1ccccc1C(F)(F)F [4-33]
70: Pre-emerge Herbicidal Activity IPOHE [4, 28] | phytotoxicity rating CASOB ([19]; 250 g ai/ha)
40: Pre-emerge Herbicidal Activity RICE [11, 30] | phytotoxicity rating SETVI ([13]; 250 g ai/ha) | phytotoxicity rating RICE (crop damage) ([22]; 250 g ai/ha)
100: Pre-emerge Herbicidal Activity AMARE [1, 27] | Pre-emerge Herbicidal Activity AMARE [1, 28] | Pre-emerge Herbicidal Activity SETVI [3, 27] | Pre-emerge Herbicidal Activity SETVI [3, 28] | Pre-emerge Herbicidal Activity CHEAL [6, 27] | Pre-emerge Herbicidal Activity CHEAL [6, 28] | Pre-emerge Herbicidal Activity ABUTH [9, 28] | phytotoxicity rating IPOHE ([14]; 63 g ai/ha) | phytotoxicity rating IPOHE ([14]; 250 g ai/ha) | phytotoxicity rating CHEAL ([16]; 250 g ai/ha) | phytotoxicity rating AMARE ([18]; 63 g ai/ha, rating scale 0-100 (0 no damage, 100 complete death)) | phytotoxicity rating AMARE ([18]; 250 g ai/ha, rating scale 0-100) | phytotoxicity rating ABUTH ([20]; 63 g ai/ha) | phytotoxicity rating ABUTH ([20]; 250 g ai/ha)
80: Pre-emerge Herbicidal Activity ECHCG [2, 28] | Pre-emerge Herbicidal Activity SORHA [5, 28]
25: phytotoxicity rating CORN (crop damage) ([21]; 250 g ai/ha)
90: Pre-emerge Herbicidal Activity DIGSA [7, 28] | phytotoxicity rating CHEAL ([16]; 63 g ai/ha)
0: Pre-emerge Herbicidal Activity IPOHE [4, 27] | Pre-emerge Herbicidal Activity CASOB [8, 27] | phytotoxicity rating SORHA ([15]; 63 g ai/ha)
50: Pre-emerge Herbicidal Activity CASOB [8, 28] | Pre-emerge Herbicidal Activity ABUTH [9, 27] | Pre-emerge Herbicidal Activity CORN [10, 30]
20: Pre-emerge Herbicidal Activity ECHCG [2, 27] | Pre-emerge Herbicidal Activity RICE [11, 29] | phytotoxicity rating ECHCG ([12]; 250 g ai/ha)
30: Pre-emerge Herbicidal Activity SORHA [5, 27] | phytotoxicity rating SETVI ([13]; 63 g ai/ha) | phytotoxicity rating SORHA ([15]; 250 g ai/ha) | phytotoxicity rating DIGSA ([17]; 250 g ai/ha) | phytotoxicity rating CASOB ([19]; 63 g ai/ha) | phytotoxicity rating RICE (crop damage) ([22]; 63 g ai/ha)
45: Pre-emerge Herbicidal Activity DIGSA [7, 27]
10: Pre-emerge Herbicidal Activity CORN [10, 29] | phytotoxicity rating ECHCG ([12]; 63 g ai/ha) | phytotoxicity rating DIGSA ([17]; 63 g ai/ha)
15: phytotoxicity rating CORN (crop damage) ([21]; 63 g ai/ha)

— patent US6355799B1, “Substituted benzene compounds, process for their preparation, and herbicidal and defoliant compositions containing them” (ISK Americas Incorporated, priority 1997, dated 2002)
